Here are results for three compounds from article PMC9249579, “Strawberry fruit FanCXE1 carboxylesterase is involved in the catabolism of volatile esters during the ripening process” (Horticulture Research, 2022).

SMILES strings stand for the structures.

In the experiment the test system is T1, FanCXE1.
T1 construct: full-length, 981 bp ORF (326 residues from ORF length), 37 kDa; N-terminal GST fusion (pGEX-4T-1), tag kept, 64 kDa; E. coli, semipurified on GST-sepharose; Gly-82-Gly-83 oxyanion hole
The experiment is described as follows: colorimetric naphthol release (DBLS reagent, […] nm). The class given is biochemical, Fragaria x ananassa. To be noted: optimum pH (7-7.5) and temperature (25-30°C), 20 min; semipurified GST fusion.
On to `CCCCCC(=O)Oc1ccc2ccccc2c1` [β-Naphthyl hexanoate], for which the Michaelis constant (Km) is 572 ± 250 µM. Regarding `CC(=O)Oc1cccc2ccccc12` [α-Naphthyl acetate], the Km stood at 678 ± 170 µM. In the case of `CCCC(=O)Oc1cccc2ccccc12` [α-Naphthyl butyrate] it was 1580 ± 190 µM.
